Some results are limits rather than exact numbers.

For one data set, the target named is T1, α1B adrenoceptor (Rattus norvegicus, UniProt P15823).
T1 construct: from tissue; host or cells: rat liver membranes
T1 sequence (P15823 1-515): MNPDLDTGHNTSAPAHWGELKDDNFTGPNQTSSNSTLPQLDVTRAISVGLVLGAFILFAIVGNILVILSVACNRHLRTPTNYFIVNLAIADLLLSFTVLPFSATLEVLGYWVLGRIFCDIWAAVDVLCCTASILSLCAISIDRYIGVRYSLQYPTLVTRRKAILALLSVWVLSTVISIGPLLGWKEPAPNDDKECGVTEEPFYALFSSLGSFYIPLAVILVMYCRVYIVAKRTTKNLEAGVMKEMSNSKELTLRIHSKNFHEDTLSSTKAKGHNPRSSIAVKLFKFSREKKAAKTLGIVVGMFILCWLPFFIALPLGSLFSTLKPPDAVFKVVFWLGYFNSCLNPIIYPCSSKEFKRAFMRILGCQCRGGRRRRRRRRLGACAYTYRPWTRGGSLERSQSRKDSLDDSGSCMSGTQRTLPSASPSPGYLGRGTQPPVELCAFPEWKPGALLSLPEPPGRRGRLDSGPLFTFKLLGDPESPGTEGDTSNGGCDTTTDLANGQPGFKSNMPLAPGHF
In words: Receptor binding assay, displacement of [3H]prazosin, rat liver membranes. The note with it: [3H]prazosin displacement, rat liver membranes; read-out: α1B (Rat liver) Ki. As to the method: Receptor binding assays were performed using native α-adrenoceptors. The affinity of different compounds for α1A and α1B adrenoceptor subtypes was evaluated by studying their ability to displace specific [^3H]prazosin binding from the membranes of rat submaxillary and liver respectively (Michel et al, Br J Pharmacol, 98, 883-889 (1989)). The binding assays were performed according to U'Prichard et al. (Eur J Pharmacol, 50:87-89 (1978)) with minor modifications.
(§1) Submaxillary glands were isolated immediately after sacrifice. The liver was perfused with buffer (Tris HCl 50 mM, NaCl 100 mM, 10 mM EDTA pH 7.4). The tissues were homogenised in 10 volumes of buffer (Tris HCl 50 mM, NaCl 100 mM, EDTA 10 mM, pH 7.4). The homogenate was filtered through two layers of wet gauze and filtrate was centrifuged at 500 g for 10 min. The supernatant was subsequently centrifuged at 40,000 g for 45 min. The pellet thus obtained was resuspended in the same volume of assay buffer (Tris HCl 50 mM, EDTA 5 mM, pH 7.4) and were stored at −70° C. until the time of assay.
The membrane homogenates (150-250 μg protein) were incubated in 250 μl of assay buffer (Tris HCl 50 mM, EDTA 5 mM, pH 7.4) at 24-25° C. for 1 h. Non-specific binding was determined in the presence of 300 nM prazosin. The incubation was terminated by vacuum filtration over GF/B fibre filters. The filters were then washed with ice cold 50 mM Tris HCl buffer (pH 7.4). The filtermats were dried and bound radioactivity retained on filters was counted.The IC50 & Kd were estimated by using the non-linear curve fitting program using G Pad Prism software. The value of inhibition constant Ki was calculated from competitive binding studies by using Cheng & Prusoff equation (Cheng & Prusoff, Biochem Pharmacol, 1973,22: 3099-3108), Ki=IC50/(1+L/Kd) where L is the concentration of [^3H]prazosin used in the particular experiment (Table I).

For another data set, the target named is T2, α1D adrenoceptor (aorta) (Rattus norvegicus, UniProt P23944).
T2 construct: Isolated tissues were mounted in organ bath containing Krebs Henseleit buffer; from tissue; host or cells: isolated aorta of male wistar rats
T2 sequence (P23944 1-561): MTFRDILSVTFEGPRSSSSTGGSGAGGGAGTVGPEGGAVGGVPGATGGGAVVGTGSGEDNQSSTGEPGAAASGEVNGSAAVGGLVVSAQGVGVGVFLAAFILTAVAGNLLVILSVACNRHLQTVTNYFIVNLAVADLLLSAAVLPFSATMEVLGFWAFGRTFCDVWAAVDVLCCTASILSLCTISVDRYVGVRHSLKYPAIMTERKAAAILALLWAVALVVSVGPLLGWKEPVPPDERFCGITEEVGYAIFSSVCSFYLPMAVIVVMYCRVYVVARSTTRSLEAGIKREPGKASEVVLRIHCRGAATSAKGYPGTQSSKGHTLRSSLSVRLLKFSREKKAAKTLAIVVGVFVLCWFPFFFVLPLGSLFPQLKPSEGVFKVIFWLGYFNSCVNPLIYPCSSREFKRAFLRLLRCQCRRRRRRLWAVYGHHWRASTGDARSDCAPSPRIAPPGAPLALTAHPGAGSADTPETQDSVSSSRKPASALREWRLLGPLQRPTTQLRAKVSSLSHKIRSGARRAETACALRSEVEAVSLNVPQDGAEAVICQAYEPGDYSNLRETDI
In words: In vitro functional study, antagonism of norepinephrine-induced contraction of aorta. It counts as biochemical. To be noted: tested compound at 0.1, 1 and 10 mM, read-out: α Adrenoceptor Subtype (pKB) α1D (converted). An excerpt:
(§2) In order to study selectivity of action of these compounds towards different α-adrenoceptor subtypes, the ability of these compounds to antagonise α1-adrenoceptor agonist induced contractile response on aorta (α1Dprostate (α1A and spleen (α1B was studied. Aorta and spleen tissues were isolated from urethane anaesthetised (1.5 gm/kg) male wistar rats. Isolated tissues were mounted in organ bath containing Krebs Henseleit buffer of following composition (mM): NaCl 118; KCl 4.7; CaCl2 2.5; MgSO4. 7H2O 1.2; NaHCO3 25; KH2PO41.2; glucose 11.5. Buffer was maintained at 37° C. and aereated with a mixture of 95% O2 and 5% CO2. A resting tension of 2 g (aorta) or 1 g (spleen and prostate)was applied to tissues. Contractile response was monitored using a force displacement transducer and recorded on chart recorders. Tissues were allowed to equilibrate for 2 hours. At the end of equilibration period, concentration response curves to norepinephrine (aorta) and phenylepinephrine (spleen and prostate) were obtained in absence and presence of tested compound (at concentration of 0.1,1 and 10 mM). Antagonist affinity was calculated and expressed as pKB vales in Table II.

Data set [1] addresses T3, α1A adrenoceptor (prostate) (Rattus norvegicus, UniProt P43140).
T3 construct: from tissue; host or cells: isolated prostate tissue
T3 sequence (P43140 1-466): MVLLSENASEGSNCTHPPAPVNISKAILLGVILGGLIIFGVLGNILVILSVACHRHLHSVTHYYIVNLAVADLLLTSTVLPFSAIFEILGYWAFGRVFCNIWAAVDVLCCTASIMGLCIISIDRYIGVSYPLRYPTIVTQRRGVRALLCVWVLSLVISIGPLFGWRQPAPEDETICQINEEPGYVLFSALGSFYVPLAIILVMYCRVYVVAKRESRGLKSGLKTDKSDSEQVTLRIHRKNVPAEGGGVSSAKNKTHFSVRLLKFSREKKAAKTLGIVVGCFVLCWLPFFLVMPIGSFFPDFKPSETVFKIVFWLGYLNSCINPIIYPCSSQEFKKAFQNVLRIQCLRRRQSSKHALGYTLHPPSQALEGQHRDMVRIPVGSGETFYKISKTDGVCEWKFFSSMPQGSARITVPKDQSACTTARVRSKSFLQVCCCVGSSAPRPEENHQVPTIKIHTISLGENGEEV
In words: In vitro functional study, antagonism of phenylepinephrine-induced contraction of prostate. It counts as biochemical. To be noted: for Selectivity α1A/α1B / Selectivity α1A/α1D: functional assays, from pKB values; for Kb: prostate, phenylepinephrine, tested compound at 0.1, 1 and 10 mM, read-out: α Adrenoceptor Subtype (pKB) α1A (converted).
Description: as §2

The target in data set [2] is T4, α1B adrenoceptor (spleen) (Rattus norvegicus, UniProt P15823).
T4 construct: Isolated tissues were mounted in organ bath containing Krebs Henseleit buffer; from tissue; host or cells: isolated spleen of male wistar rats
T4 sequence (P15823 1-515): T1 sequence (P15823 1-515)
In words: In vitro functional study, antagonism of phenylepinephrine-induced contraction of spleen. To be noted: tested compound at 0.1, 1 and 10 mM, read-out: α Adrenoceptor Subtype (pKB) α1B (converted). It counts as biochemical.
Description: as §2

Another data set has as its target T5, α1A adrenoceptor (Rattus norvegicus, UniProt P43140).
T5 construct: from tissue; host or cells: rat submaxillary gland membranes
T5 sequence (P43140 1-466): T3 sequence (P43140 1-466)
The data set is described as follows: Receptor binding assay, displacement of [3H]prazosin, rat submaxillary membranes. To be noted: for Ki: [3H]prazosin displacement, rat submaxillary membranes, read-out: α1A (Rat submaxillary) Ki; for Selectivity α1B/α1A: ratio of Ki α1B (rat liver) / α1A (rat submaxillary). Here is the method: Receptor binding assays were performed using native α-adrenoceptors.
as §1
The membrane homogenates (150-250 μg protein) were incubated in 250 μl of assay buffer (Tris HCl 50 mM, EDTA 5 mM, pH 7.4) at 24-25° C. for 1 h. Non-specific binding was determined in the presence of 300 nM prazosin. The incubation was terminated by vacuum filtration over GF/B fibre filters. The filters were then washed with ice cold 50 mM Tris HCl buffer (pH 7.4). The filtermats were dried and bound radioactivity retained on filters was counted.The IC50 & Kd were estimated by using the non-linear curve fitting program using G Pad Prism software.
On the technique in general: In a radioligand displacement assay an active substance lowers the binding of a labelled ligand.

For the molecule `COc1ccc(F)cc1N1CCN(CCCN2C(=O)C3CC=CCC3C2=O)CC1.Cl` (stereo not drawn) [Compound 08, 2-[3-{4-(2-Methoxy-5-fluorophenyl)piperazin-1-yl}propyl]-3a,4,7,7a-tetrahydro-1H-isoindole-1,3(2H)-dione hydrochloride], the melting point fell in the range of 163 to 165 °C. Also, the Ki on α1B adrenoceptor is 29 nM. Moreover, the Kb on α1D adrenoceptor (aorta) was 0.891 nM. Also, in data set [1], the “Selectivity α1A/α1B” value stood at 3.4 and the Kb is 1.17 nM. Also, the Kb in data set [2] is 3.98 nM. Further, on α1A adrenoceptor, the Ki came out at 0.34 nM and the “Selectivity α1B/α1A” value is 85.
Take `CCc1ccccc1N1CCN(CCCN2C(=O)C3CC=CCC3C2=O)CC1.Cl` (stereo not drawn) [Compound 09, 2-[3-{4-(2-Ethylphenyl)piperazin-1-yl}propyl]-3a,4,7,7a-tetrahydro-1H-isoindole-1,3(2H)-dione hydrochloride]: the melting point was 232.5 to 233.5 °C. Further, the Ki at α1B adrenoceptor came out at 62 nM. In addition, the Kb at α1D adrenoceptor (aorta) is 2.51 nM. Besides, in data set [1], the “Selectivity α1A/α1B” value came out at 23, the “Selectivity α1A/α1D” value is on record as 3.6 and the Kb was 0.676 nM. Further, the Kb in data set [2] was 15.8 nM. At α1A adrenoceptor, the inhibition constant Ki was found to be 0.3 nM and the “Selectivity α1B/α1A” value was found to be 207.
As for `Cl.O=C1C2CC=CCC2C(=O)N1CCCN1CCN(c2ccccc2)CC1` (stereo not drawn) [Compound 13, 2-[3-{4-(Phenyl)piperazin-1-yl}propyl]-3a,4,7,7a-tetrahydro-1H-isoindole-1,3(2H)-dione hydrochloride], the melting point was 231 to 232 °C. For the same molecule, the Ki on α1B adrenoceptor came out at 384 nM. For the same molecule, the Kb on α1D adrenoceptor (aorta) is 51.3 nM. Further, in data set [1], the “Selectivity α1A/α1B” value was determined as 89, the “Selectivity α1A/α1D” value was 5.6 and the Kb is 9.12 nM. Besides, in data set [2], the Kb was 813 nM. At α1A adrenoceptor, the Ki is 6.3 nM and the “Selectivity α1B/α1A” value worked out at 61.
For the molecule `CCCCCCOc1ccccc1N1CCN(CCCN2C(=O)C3CC=CCC3C2=O)CC1.Cl` (stereo not drawn) [Compound 25, 2-[3-{4-(2-n-Hexyloxyphenyl)piperazin-1-yl}propyl]-3a,4,7,7a-tetrahydro-1H-isoindole-1,3(2H)-dione hydrochloride], the melting point fell in the range of 165 to 166 °C. In addition, the Ki on α1B adrenoceptor is over 500 nM. Further, the Kb on α1D adrenoceptor (aorta) was 1 nM. Besides, in data set [1], the “Selectivity α1A/α1B” value is 54 and the Kb is 1.26 nM. In addition, the Kb in data set [2] is 67.6 nM. Moreover, at α1A adrenoceptor, the Ki came out at 3.3 nM and the “Selectivity α1B/α1A” value is given as over 151.
Molecule `COc1ccccc1N1CCN(C(C)CCN2C(=O)C3CC=CCC3C2=O)CC1.Cl` (stereo not drawn) [Compound 29, 2-[3-{4-(2-Methoxyphenyl)piperazin-1-yl}-3-methylpropyl]-3a,4,7,7a-tetrahydro-1H-isoindole-1,3(2H)-dione hydrochloride] gave a melting point of 219 to 220 °C. Besides, on α1B adrenoceptor, the Ki is 708 nM. In addition, the Kb at α1D adrenoceptor (aorta) is 33.9 nM. In data set [1], the “Selectivity α1A/α1B” value came to 18 and the Kb is 87.1 nM. The Kb in data set [2] is 1580 nM. At α1A adrenoceptor, the Ki worked out at 3.45 nM and the “Selectivity α1B/α1A” value stood at 205.

In general, Ki refers to the dissociation constant of the complex between target and ligand, obtained from inhibition or displacement. The melting point is the temperature, or range, at which the solid turns liquid.

The values above are taken from patent US6914064B2, “1,4-Disubstituted piperazine derivatives useful as uro-selective α1-adrenoceptor blockers” (Ranbaxy Laboratories Limited, priority 2000, dated 2005).
